Results reported in paper PMC7871173 (Journal of medicinal chemistry, 2019).
“Also recorded” adds a separate entry of the source.

Assays:
CB1 receptor [1] = molecular target: T1, CB1 receptor (Homo sapiens, UniProt P21554); assay: cell-based; details: read-out: Emax PAM, maximum EC20 CP 55,940-induced β-arrestin recruitment relative to maximum achievable with CP 55,940
CB1 receptor [2] = molecular target: T2, CB1 receptor (Mus musculus, UniProt P47746); assay: Augmentation of CP 55,940 antinociception in the tail withdrawal test; type: in vivo; details: 40 mg/kg
CB1 receptor [3] = molecular target: T2, CB1 receptor; details: for activity in the tetrad or psychoactive effects: see Supporting Information
CB1 receptor [4] = molecular target: T1, CB1 receptor; type: cell-based; details: for CB1 PAM activity (in words): enhancement of CP 55,940-induced β-arrestin recruitment; for enhancement of CP 55,940-induced β-arrestin recruitment: at 300 nM
CB1 receptor [5] = molecular target: T1, CB1 receptor; type: cell-based; details: compound alone; relative to maximum achievable with CP 55,940
CB1 receptor [6] = molecular target: T1, CB1 receptor; type: binding; details: 1 μM compound; for % enhancement of [3H]CP 55,940 binding: three independent experiments
[7] = Mouse liver microsomal stability; type: in vitro ADME; details: mouse liver microsomes
[8] = test system: mouse chronic constrictive injury of the sciatic nerve (CCI) model of neuropathic pain; details: 40 mg/kg; cited from earlier work
in vitro = details: rat, rat liver microsomes
[9] = compared to nearest nitro analogue

T1 sequence (P21554 whole entry): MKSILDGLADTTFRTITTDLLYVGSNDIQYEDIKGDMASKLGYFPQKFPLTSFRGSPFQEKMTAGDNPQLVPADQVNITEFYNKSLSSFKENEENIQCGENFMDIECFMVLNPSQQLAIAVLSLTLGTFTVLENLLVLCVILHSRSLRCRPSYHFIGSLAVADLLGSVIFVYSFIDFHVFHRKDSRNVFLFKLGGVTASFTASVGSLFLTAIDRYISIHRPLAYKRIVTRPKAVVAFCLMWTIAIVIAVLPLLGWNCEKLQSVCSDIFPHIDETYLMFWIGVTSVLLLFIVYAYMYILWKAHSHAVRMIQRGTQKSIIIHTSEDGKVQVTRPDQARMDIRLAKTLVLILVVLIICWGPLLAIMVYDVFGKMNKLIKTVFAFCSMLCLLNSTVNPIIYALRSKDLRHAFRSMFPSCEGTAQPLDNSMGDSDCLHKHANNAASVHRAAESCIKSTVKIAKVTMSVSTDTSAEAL
T2 sequence (P47746 whole entry): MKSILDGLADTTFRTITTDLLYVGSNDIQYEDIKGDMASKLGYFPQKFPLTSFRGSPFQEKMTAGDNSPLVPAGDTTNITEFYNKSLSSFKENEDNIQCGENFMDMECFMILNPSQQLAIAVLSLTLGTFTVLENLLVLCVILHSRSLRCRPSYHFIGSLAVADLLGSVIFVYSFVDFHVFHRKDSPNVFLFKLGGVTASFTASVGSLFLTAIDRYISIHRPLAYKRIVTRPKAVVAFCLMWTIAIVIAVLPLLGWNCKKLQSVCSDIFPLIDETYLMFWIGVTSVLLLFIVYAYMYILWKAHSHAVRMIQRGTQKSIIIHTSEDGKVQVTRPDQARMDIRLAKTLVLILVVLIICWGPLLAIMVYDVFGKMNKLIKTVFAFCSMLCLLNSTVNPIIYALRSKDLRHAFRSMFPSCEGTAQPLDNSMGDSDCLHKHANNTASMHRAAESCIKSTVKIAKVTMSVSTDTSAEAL

N#Cc1ccc2c(C(CC(F)(F)F)c3cccs3)c(-c3ccccc3)[nH]c2c1 (racemic) [(±)-1, 2-Phenyl-3-(3,3,3-trifluoro-1-(thiophen-2-yl)propyl)-1H-indole-6-carbonitrile]
Emax (CB1 receptor [1]): 100 ± 25%
shift of dose–response relationship of CP 55,940 in producing antinociception (CB1 receptor [2]): significant leftward shifts
antinociception in the tail withdrawal test (CB1 receptor [3]; 40 mg/kg, administered alone): did not produce antinociception
hypothermia (CB1 receptor [3]; 40 mg/kg, administered alone): did not produce hypothermia
immobility in the catalepsy bar test (CB1 receptor [3]; 40 mg/kg, administered alone): did not produce hypothermia or cause immobility in the catalepsy bar test
locomotor behavior (distance traveled, immobility time) (CB1 receptor [3]; 40 mg/kg, administered alone): did not affect either the distance traveled or immobility time
pharmacological effects in the tetrad assay (CB1 receptor [3]; 40 mg/kg, administered alone): did not elicit pharmacological effects
activity in the tetrad or psychoactive effects (CB1 receptor [3]): neither ZCZ011 or (±)-1 showed any activity in the tetrad or psychoactive effects

N#Cc1ccc2c(C(C[N+](=O)[O-])c3cccs3)c(-c3ccccc3)[nH]c2c1 (racemic) [(±)-8]
CB1 PAM activity (in words) (CB1 receptor [4]): moderately potent and efficacious CB1 PAMs

N#Cc1ccc2c(C(C[N+](=O)[O-])c3cccs3)c(-c3ccccc3)[nH]c2c1 (single isomer, unassigned; (+)) [(+)-8]
CB1 PAM activity (in words) (CB1 receptor [4]): effectively pure PAMs
Emax Ago (CB1 receptor [5]): 6%
enhancement in binding of [3H]CP 55,940 (in words) (CB1 receptor [6]): no enhancement

N#Cc1ccc2c(C(C[N+](=O)[O-])c3cccs3)c(-c3ccccc3)[nH]c2c1 (single isomer, unassigned; (-)) [(−)-8]
CB1 PAM activity (in words) (CB1 receptor [4]): effectively pure PAMs
enhancement in binding of [3H]CP 55,940 (in words) (CB1 receptor [6]): no enhancement

N#Cc1ccc2c([C@@H](CC(F)(F)F)c3cccs3)c(-c3ccccc3)[nH]c2c1 [(R)-(−)-1]
Emax (CB1 receptor [1]): 125 ± 29%
enhancement in binding of [3H]CP 55,940 (in words) (CB1 receptor [6]): significant enhancement
% enhancement of [3H]CP 55,940 binding (CB1 receptor [6]): 131.4 ± 4.3%

N#Cc1ccc2c([C@H](CC(F)(F)F)c3cccs3)c(-c3ccccc3)[nH]c2c1 [(S)-(+)-1]
Emax (CB1 receptor [1]): 79 ± 32%
enhancement in binding of [3H]CP 55,940 (in words) (CB1 receptor [6]): significant enhancement
% enhancement of [3H]CP 55,940 binding (CB1 receptor [6]): 144.4 ± 3.5%

Cc1ccc2[nH]c(-c3ccccc3)c(C(C[N+](=O)[O-])c3cccs3)c2c1 (stereo not shown) [Compound 2]
CB1 PAM activity (in words) (CB1 receptor [4]): poor potency

N#Cc1ccc2[nH]c(-c3ccccc3)c(C(C[N+](=O)[O-])c3cccs3)c2c1 (stereo not shown) [Compound 3]
CB1 PAM activity (in words) (CB1 receptor [4]): poor potency

O=[N+]([O-])CC(c1cccs1)c1c(-c2ccccc2)[nH]c2ccc([N+](=O)[O-])cc12 (stereo not shown) [Compound 4]
CB1 PAM activity (in words) (CB1 receptor [4]): poor potency

Cc1ccc2c(C(C[N+](=O)[O-])c3cccs3)c(-c3ccccc3)[nH]c2c1 (stereo not shown) [Compound 5, reference compound]
CB1 PAM activity (in words) (CB1 receptor [4]): moderately potent and efficacious CB1 PAMs
half-life [7]: ≤ 10 min
enhancement in binding of [3H]CP 55,940 (in words) (CB1 receptor [6]): significant enhancement
activity in the tetrad or psychoactive effects (CB1 receptor [3]): neither ZCZ011 or (±)-1 showed any activity in the tetrad or psychoactive effects
anti-allodynic effects [8]: produces anti-allodynic effects
half-life (in vitro): ≤ 10 min

O=[N+]([O-])CC(c1cccs1)c1c(-c2ccccc2)[nH]c2cc(Cl)ccc12 (stereo not shown) [Compound 6]
CB1 PAM activity (in words) (CB1 receptor [4]): moderately potent and efficacious CB1 PAMs

O=[N+]([O-])CC(c1cccs1)c1c(-c2ccccc2)[nH]c2cc(C(F)(F)F)ccc12 (stereo not shown) [Compound 7]
CB1 PAM activity (in words) (CB1 receptor [4]): moderately potent and efficacious CB1 PAMs

Cc1ccc2c(C(CC#N)c3ccccc3)c(-c3ccccc3)[nH]c2c1 (stereo not shown) [Compound 30]
CB1 PAM activity (in words) (CB1 receptor [4]): modest

N#CCC(c1ccccc1)c1c(-c2ccccc2)[nH]c2cc(Cl)ccc12 (stereo not shown) [Compound 31]
CB1 PAM activity (in words) (CB1 receptor [4]): somewhat reduced potency and efficacy
metabolic stability in rat liver microsomes (in words) [9]: similarly poor metabolic stability

Cc1ccc2c(C(c3ccccc3)C(C#N)C#N)c(-c3ccccc3)[nH]c2c1 (stereo not shown) [Compound 32]
CB1 PAM activity (in words) (CB1 receptor [4]): modest

Cc1ccc2c(C(C(=O)C(F)(F)F)c3ccccc3)c(-c3ccccc3)[nH]c2c1 (stereo not shown) [Compound 38]
enhancement of CP 55,940-induced β-arrestin recruitment (CB1 receptor [4]): 50–100%

Cc1ccc2c(C(CC(F)(F)F)c3ccccc3)c(-c3ccccc3)[nH]c2c1 (stereo not shown) [Compound 39]
enhancement of CP 55,940-induced β-arrestin recruitment (CB1 receptor [4]): 50–100%

O=C(O)c1ccc2c(C(CC(F)(F)F)c3cccs3)c(-c3ccccc3)[nH]c2c1 (stereo not shown) [Compound 51]
CB1 PAM activity (in words) (CB1 receptor [4]): none of 6-CO2H (51), 6-CH2OH (52), 6-NHAc (53), 6-NH2 (55), or 6-NHSO2Me (56) gave active compounds; also recorded: inactive

OCc1ccc2c(C(CC(F)(F)F)c3cccs3)c(-c3ccccc3)[nH]c2c1 (stereo not shown) [Compound 52, (2-Phenyl-3-(3,3,3-trifluoro-1-(thiophen-2-yl)propyl)-1H-indol-6-yl)methanol]
CB1 PAM activity (in words) (CB1 receptor [4]): none of 6-CO2H (51), 6-CH2OH (52), 6-NHAc (53), 6-NH2 (55), or 6-NHSO2Me (56) gave active compounds

CC(=O)Nc1ccc2c(C(CC(F)(F)F)c3cccs3)c(-c3ccccc3)[nH]c2c1 (stereo not shown) [Compound 53, N-(2-Phenyl-3-(3,3,3-trifluoro-1-(thiophen-2-yl)propyl)-1H-indol-6-yl)acetamide]
CB1 PAM activity (in words) (CB1 receptor [4]): none of 6-CO2H (51), 6-CH2OH (52), 6-NHAc (53), 6-NH2 (55), or 6-NHSO2Me (56) gave active compounds

CC(=O)c1ccc2c(C(CC(F)(F)F)c3cccs3)c(-c3ccccc3)[nH]c2c1 (stereo not shown) [Compound 54, 1-(2-Phenyl-3-(3,3,3-trifluoro-1-(thiophen-2-yl)propyl)-1H-indol-6-yl)ethan-1-one]
CB1 PAM activity (in words) (CB1 receptor [4]): potent and efficacious

Nc1ccc2c(C(CC(F)(F)F)c3cccs3)c(-c3ccccc3)[nH]c2c1 (stereo not shown) [Compound 55, 2-Phenyl-3-(3,3,3-trifluoro-1-(thiophen-2-yl)propyl)-1H-indol-6-amine]
CB1 PAM activity (in words) (CB1 receptor [4]): none of 6-CO2H (51), 6-CH2OH (52), 6-NHAc (53), 6-NH2 (55), or 6-NHSO2Me (56) gave active compounds

CS(=O)(=O)Nc1ccc2c(C(CC(F)(F)F)c3cccs3)c(-c3ccccc3)[nH]c2c1 (stereo not shown) [Compound 56, N-(2-Phenyl-3-(3,3,3-trifluoro-1-(thiophen-2-yl)propyl)-1H-indol-6-yl)methanesulfonamide]
CB1 PAM activity (in words) (CB1 receptor [4]): none of 6-CO2H (51), 6-CH2OH (52), 6-NHAc (53), 6-NH2 (55), or 6-NHSO2Me (56) gave active compounds
